PubChem BioAssay AID2060912 (Molecular Pharmacology Branch, DTP, NCI, 2025)

Test system: HUVEC/MSC spheroids viability
Assay: Human HUVEC/MSC cell line growth inhibition [KRAS2];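 on viability, T/C: percent of DMSO vehicle control luminescence so 100% = untreated viability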
Settings: for IC50: curve of first compound; for viability, T/C: stronger effect = lower value; active means viability on the fitted dose curve at most 10% of control; inactive means the rest
Procedure, shortened: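 The concentration series started at or near clinical Cmax (10 microM if not known) and fell in half-log increments, alone or in combination. Cells were stromal-only spheroids of pooled-donor HUVEC and hMSC (passage </=5), with different drug plates and layout from the tumor spheroid screens.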

[1] = second compound 0.0316 µM, first compound 0.0316 µM
[2] = second compound 0.0316 µM, first compound 0.1 µM
[3] = second compound 0.0316 µM, first compound 0.316 µM
[4] = second compound 0.0316 µM, first compound 1 µM
[5] = second compound 0.1 µM, first compound 0.0316 µM
[6] = second compound 0.1 µM, first compound 0.1 µM
[7] = second compound 0.1 µM, first compound 0.316 µM
[8] = second compound 0.1 µM, first compound 1 µM
[9] = second compound 0.316 µM, first compound 0.0316 µM
[10] = second compound 0.316 µM, first compound 0.1 µM
[11] = second compound 0.316 µM, first compound 0.316 µM
[12] = second compound 0.316 µM, first compound 1 µM
[13] = second compound 1 µM, first compound 0.0316 µM
[14] = second compound 1 µM, first compound 0.1 µM
[15] = second compound 1 µM, first compound 0.316 µM
[16] = second compound 1 µM, first compound 1 µM
[17] = second compound 3.16 µM, first compound 0.0316 µM
[18] = second compound 3.16 µM, first compound 0.1 µM
[19] = second compound 3.16 µM, first compound 0.316 µM
[20] = second compound 3.16 µM, first compound 1 µM
[21] = second compound 10 µM, first compound 0.0316 µM
[22] = second compound 10 µM, first compound 0.1 µM
[23] = second compound 10 µM, first compound 0.316 µM
[24] = second compound 10 µM, first compound 1 µM
[25] = second compound 0.0316 µM, first compound 0.00316 µM
[26] = second compound 0.0316 µM, first compound 0.01 µM
[27] = second compound 0.1 µM, first compound 0.00316 µM
[28] = second compound 0.1 µM, first compound 0.01 µM
[29] = second compound 0.316 µM, first compound 0.00316 µM
[30] = second compound 0.316 µM, first compound 0.01 µM
[31] = second compound 1 µM, first compound 0.00316 µM
[32] = second compound 1 µM, first compound 0.01 µM
[33] = second compound 3.16 µM, first compound 0.00316 µM
[34] = second compound 3.16 µM, first compound 0.01 µM
[35] = second compound 10 µM, first compound 0.00316 µM
[36] = second compound 10 µM, first compound 0.01 µM

CC1(C)CCC(CN2CCN(c3ccc(C(=O)NS(=O)(=O)c4ccc(NCC5CCOCC5)c([N+](=O)[O-])c4)c(Oc4cnc5[nH]ccc5c4)c3)CC2)=C(c2ccc(Cl)cc2)C1 + CC1OCC2(CCN(c3cnc(Sc4ccnc(N)c4Cl)c(N)n3)CC2)C1N
2230 nM: IC50 (second compound 10 µM)
4470 nM: IC50 (second compound 1 µM)
4690 nM: IC50 (second compound 0.1 µM)
5150 nM: IC50 (second compound 0.0316 µM)
active: viability, T/C (second compound 0.0316 µM, first compound 10 µM) 4.11% | viability, T/C (second compound 0.1 µM, first compound 10 µM) 1.56% | viability, T/C (second compound 0.316 µM, first compound 10 µM) 3.8% | viability, T/C (second compound 1 µM, first compound 10 µM) 0.34% | viability, T/C (second compound 3.16 µM, first compound 10 µM) 0.92% | viability, T/C (second compound 10 µM, first compound 10 µM) 0.29%
4770 nM: IC50 (second compound 0.316 µM)
3510 nM: IC50 (second compound 3.16 µM)
inactive: viability, T/C [1] 99.2% | viability, T/C [2] 116% | viability, T/C [3] 109% | viability, T/C [4] 108% | viability, T/C (second compound 0.0316 µM, first compound 3.16 µM) 83.8% | viability, T/C [5] 116% | viability, T/C [6] 110% | viability, T/C [7] 102% | viability, T/C [8] 94.9% | viability, T/C (second compound 0.1 µM, first compound 3.16 µM) 78.6% | viability, T/C [9] 91.5% | viability, T/C [10] 124% | viability, T/C [11] 122% | viability, T/C [12] 110% | viability, T/C (second compound 0.316 µM, first compound 3.16 µM) 75.6% | viability, T/C [13] 91% | viability, T/C [14] 95% | viability, T/C [15] 102% | viability, T/C [16] 92.3% | viability, T/C (second compound 1 µM, first compound 3.16 µM) 71.6% | viability, T/C [17] 93.2% | viability, T/C [18] 91.9% | viability, T/C [19] 93% | viability, T/C [20] 66.1% | viability, T/C (second compound 3.16 µM, first compound 3.16 µM) 61.3% | viability, T/C [21] 76% | viability, T/C [22] 76.2% | viability, T/C [23] 85.1% | viability, T/C [24] 69.8% | viability, T/C (second compound 10 µM, first compound 3.16 µM) 40.9%

CCN1CCN(Cc2ccc(Nc3ncc(F)c(-c4cc(F)c5nc(C)n(C(C)C)c5c4)n3)nc2)CC1 + CC1OCC2(CCN(c3cnc(Sc4ccnc(N)c4Cl)c(N)n3)CC2)C1N
> 1000 nM: IC50 (second compound 0.0316 µM) | IC50 (second compound 0.1 µM) | IC50 (second compound 0.316 µM) | IC50 (second compound 1 µM) | IC50 (second compound 3.16 µM) | IC50 (second compound 10 µM)
inactive: viability, T/C [25] 105% | viability, T/C [26] 105% | viability, T/C [1] 95.6% | viability, T/C [2] 111% | viability, T/C [3] 124% | viability, T/C [4] 121% | viability, T/C [27] 111% | viability, T/C [28] 105% | viability, T/C [5] 117% | viability, T/C [6] 93.4% | viability, T/C [7] 123% | viability, T/C [8] 114% | viability, T/C [29] 108% | viability, T/C [30] 108% | viability, T/C [9] 102% | viability, T/C [10] 96.9% | viability, T/C [11] 117% | viability, T/C [12] 114% | viability, T/C [31] 94.3% | viability, T/C [32] 95.9% | viability, T/C [13] 85.6% | viability, T/C [14] 96% | viability, T/C [15] 102% | viability, T/C [16] 114% | viability, T/C [33] 81.1% | viability, T/C [34] 84.8% | viability, T/C [17] 88.2% | viability, T/C [18] 80% | viability, T/C [19] 96.2% | viability, T/C [20] 87.2% | viability, T/C [35] 74.8% | viability, T/C [36] 66% | viability, T/C [21] 67.2% | viability, T/C [22] 62.3% | viability, T/C [23] 84.1% | viability, T/C [24] 91.2%

Cn1ncnc1[C@H]1c2n[nH]c(=O)c3cc(F)cc(c23)N[C@@H]1c1ccc(F)cc1 + CC1OCC2(CCN(c3cnc(Sc4ccnc(N)c4Cl)c(N)n3)CC2)C1N
inactive: viability, T/C (second compound 0.0316 µM, first compound 0.000316 µM) 105% | viability, T/C (second compound 0.0316 µM, first compound 0.001 µM) 111% | viability, T/C [25] 97.5% | viability, T/C [26] 86.9% | viability, T/C [1] 90.8% | viability, T/C [2] 89.7% | viability, T/C (second compound 0.1 µM, first compound 0.000316 µM) 87.9% | viability, T/C (second compound 0.1 µM, first compound 0.001 µM) 114% | viability, T/C [27] 99.9% | viability, T/C [28] 75.7% | viability, T/C [5] 93.2% | viability, T/C [6] 95.6% | viability, T/C (second compound 0.316 µM, first compound 0.000316 µM) 80% | viability, T/C (second compound 0.316 µM, first compound 0.001 µM) 111% | viability, T/C [29] 98.5% | viability, T/C [30] 96.9% | viability, T/C [9] 93.2% | viability, T/C [10] 81.7% | viability, T/C (second compound 1 µM, first compound 0.000316 µM) 83.9% | viability, T/C (second compound 1 µM, first compound 0.001 µM) 93.7% | viability, T/C [31] 95.4% | viability, T/C [32] 84.3% | viability, T/C [13] 93.8% | viability, T/C [14] 67.7% | viability, T/C (second compound 3.16 µM, first compound 0.000316 µM) 79.7% | viability, T/C (second compound 3.16 µM, first compound 0.001 µM) 94.4% | viability, T/C [33] 80.9% | viability, T/C [34] 74% | viability, T/C [17] 76.8% | viability, T/C [18] 69.2% | viability, T/C (second compound 10 µM, first compound 0.000316 µM) 69.7% | viability, T/C (second compound 10 µM, first compound 0.001 µM) 82.3% | viability, T/C [35] 67.3% | viability, T/C [36] 68.3% | viability, T/C [21] 65.7% | viability, T/C [22] 56%
> 100 nM: IC50 (second compound 0.0316 µM) | IC50 (second compound 0.1 µM) | IC50 (second compound 0.316 µM) | IC50 (second compound 1 µM) | IC50 (second compound 3.16 µM) | IC50 (second compound 10 µM)
